Values quoted from earlier work as cited in patent publication US10857210B2, “Compositions and methods to promote wound healing” (Wayne State University, priority 2015, dated 2020).

How the values were obtained:
Tet promoter = conditions: relative to tetracycline

- solubility in water: fully soluble in water
SMILES: Cc1c2c(c(O)c3c(O)cccc13)C(=O)[C@]1(O)C(=O)C(C(N)=O)=C(O)[C@@H](N(C)C)[C@@H]1C2 [anhydrotetracycline]
- concentration that activates the Tet promoter, lower than with tetracycline (Tet promoter): 2 logs
